From ChEMBL document CHEMBL2046327, “Jomthonic acid , a modified amino acid from a soil-derived Streptomyces” (J Nat Prod, 2012)
Activity calls are given as the source filed them. No cut-off for these calls is given here.

Columns and labels:
MCF7 = experiment: Cytotoxicity against human MCF7 cells after 48 hrs by MTT assay; assay type: functional, cell-based; details: MCF7, 48 h
[1] = Induction of mouse ST-13 cell differentiation into mature adipocyte at 50 uM; assay type: functional
ST-13 = experiment: Induction of mouse ST-13 cell differentiation into mature adipocyte at 2 to 50 uM; assay type: functional, cell-based
Candida albicans = experiment: Antimicrobial activity against Candida albicans IFO1594 after 20 hrs by microplate reader; assay type: functional; details: IFO1594, 20 h
Micrococcus luteus = experiment: Antimicrobial activity against Micrococcus luteus ATCC 9343 after 20 hrs by microplate reader; assay type: functional; details: ATCC 9343, 20 h
Escherichia coli = experiment: Antimicrobial activity against Escherichia coli NIH-JC2 after 20 hrs by microplate reader; assay type: functional; details: NIH-JC2, 20 h

MIC (Candida albicans): > 50 µg/mL
MIC (Micrococcus luteus): > 50 µg/mL
MIC (Escherichia coli): > 50 µg/mL
SMILES: C/C=C(C)/C=C/C(=O)N[C@H](C(=O)O[C@H](C)[C@@H](C)C(=O)O)[C@H](C)c1ccccc1 [JOMTHONIC ACID A]
IC50 (MCF7): > 100 µM
Activity [1]: 80%
Activity (ST-13): Active
